Data: patent publication EP1009397B1, “USE OF N,N-BIS (PHENYLCARBAMOYLMETHYL) DIMETHYLAMMONIUM CHLORIDE AND DERIVATIVES IN THE TREATMENT OF CHRONIC PAIN” (UCB Farchim S.A., priority 1997, dated 1999)

Experiments:
human forearm = experiment: Intradermal injections into the human forearm; format: in vivo; settings: intradermal injections of small volumes of solutions
mouse tail = experiment: Regional analgesic effects in mice (tourniquet at tail base, tail vein injection, tail-flick); format: in vivo; settings: injection into the tail vein, tourniquet around the base of the tail
Text: In these experiments a tourniquet is placed around the base of a mouse tail so as to occlude blood flow to and from the tail.

Acute toxicity in rats = settings: rat, in vivo, ip; intraperitoneal administration to rats; read-out: survival dose values (LD50)
CD-1 mice = experiment: Formalin Tail Test; format: in vivo
Method: The protocol of this test is similar to that for the Paw Test described above, except that the injection of formalin was in the dorsal mid-tail region of the mouse instead of the hind paw. Behaviors such as licking of the tail (with and without lifting the tail), grooming, exploring and resting were recorded every two minutes for sixty minutes after injection of formalin (30 µl of 2.5% formalin)
Two modes of administration (subcutaneous and oral) of Compound I were studied. […] The ED50 was determined to be 40 mg/kg.
In the oral administration study, CD-1 mice weighing 15-30 grams each (n=8 or 4 for each dose of Compound I) were orally administered with either gum arabic (vehicle), 300 mg/kg or 700 mg/kg Compound I, 60 minutes prior to formalin (2.5%, 30 µ1)_injection. Behaviors such as licking of the tail (with and without lifting the tail), grooming, exploring and resting were recorded every two minutes for sixty minutes after injection of formalin (30 µl of 2.5% formalin). At an oral dose of 700mg/kg, Compound I reduced licking by 62%, while at 300 mg/kg, a reduction of 50% was determined

rabbit = settings: intravenous administration; cited from earlier work
[1] = Acute toxicity in rabbits; settings: rabbit, in vivo; intravenous administration to rabbits; read-out: survival dose values (LD50)
Method: The experiments were carried out on animals that were administered intravenously or orally escalating doses of the test compounds.

Acute toxicity in mice = settings: mouse, in vivo, read-out: survival dose values (LD50)
CD-I mouse = experiment: Formalin Paw Test; format: in vivo, mice; settings: for ED50: subcutaneous
Method: In this test a hind paw (footpad) of conscious mice was injected with a formalin solution, which produced a painful stimulus, to which the mice reacted by licking the foot. Pretreatment of the animal with an effective analgesia reduced the pain and consequently the licking behavior. […] At t=0 minutes, either saline, […], 20, 40, 80 or 160 mg/kg was injected subcutaneously under the dorsal skin of the neck of a CD-I mouse (n=8 for each dose of Compound I) that weighed in the range of 20-45 grams. At t=60 minutes, formalin (2 different amounts were used in separate studies) was injected into the right hind paw (footpad) of each mouse, and the animal was released into the observation chamber (24-26°C). The mice were videotaped in groups of four for 60 minutes. The observations were made from viewing the videotapes activity, and the investigators looked for the following pain behavioral traits: licking of the right hind paw; lifting and licking of the right hind paw; resting/sleeping/being still; exploring or grooming (F.V. Abbott, K.B.J. Franklin and R.F. Wesbrook, Pain, 1995, 60 191-202). The corresponding behavioral traits were checked and recorded for each animal every two minutes for sixty minutes after the formalin injection.

guinea pig = settings: intravenous administration; cited from earlier work

Row | Compound | effect on sensation of heat or touch (human forearm) | inhibition of pain induced by pin-prick (human forearm) | block of tail-flick in response to heat (mouse tail) | block of tail-flick in response to pin-prick (mouse tail) | LD50 (Acute toxicity in rats) [mg/kg] | ED50 (CD-1 mice; Mus musculus, sc, subcutaneous administration, 30 µl of 2.5% formalin) [mg/kg] | reduction of licking (CD-1 mice; oral 300 mg/kg, 60 minutes prior to formalin (2.5%, 30 µ1)) [%] | reduced licking (CD-1 mice; oral dose of 700mg/kg, 60 minutes prior to formalin (2.5%, 30 µ1)) [%] | inhibition of the delayed phase of licking (CD-1 mice; subcutaneous administration under the dorsal skin of the neck, 30 µl of 2.5% formalin in dorsal mid-tail region) | Toxicity (LD100) (rabbit) [mg/kg] | LD50 [1] [mg/kg] | LD50 (Acute toxicity in mice; ip, intraperitoneal administration to mice) [mg/kg] | LD50 (Acute toxicity in mice; sc, subcutaneous injection to mice) [mg/kg] | LD50 (Acute toxicity in mice; oral administration to mice) [mg/kg] | ED50 (CD-I mouse; Mus musculus, sc, 20 µl of 2.0% formalin injected) [mg/kg] | ED50 (CD-I mouse; Mus musculus, sc, 30 µl of 2.5% formalin injected) [mg/kg] | inhibition at 160 mg/kg (CD-I mouse; Mus musculus, sc, 20 µl of 2.0% formalin injected, at 160 mg/kg subcutaneous) [%] | alteration of animal behavior (CD-I mouse; at the doses of the formalin paw test (up to 160 mg/kg subcutaneous)) | inhibition of the delayed phase of licking (CD-I mouse; subcutaneous under the dorsal skin of the neck, 60 minutes before formalin into right hind paw) | Toxicity (LD100) (guinea pig) [mg/kg]
1 | C[N+](C)(CC(=O)Nc1ccccc1)CC(=O)Nc1ccccc1.[Cl-] [Compound I, N, N-Bis (phenylcarbamoylmethyl) dimethylammonium chloride] | little or no effect on sensation of heat or touch | long-lasting inhibition of pain induced by pin-prick | not to heat | rapidly produced block of tail-flick in response to pin-prick | 150 | 40 | 50 | 62 | dose related inhibition of the delayed phase of licking | 50 | 17 | 125 | 264 | 117 | 50 | 145 | > 80 | no evident alteration of animal behavior other than the reduced reaction to the noxious stimulus | dose related inhibition of the delayed phase of licking | 36
2 | CCCCN1CCCCC1C(=O)Nc1c(C)cccc1C (centres unmarked) [bupivacaine] | inhibited equally sensation of pain, heat and touch | inhibited equally sensation of pain, heat and touch | – | – | – | – | – | – | – | – | – | – | – | – | – | – | – | – | – | –
3 | CCN(CC)CC(=O)Nc1c(C)cccc1C [lidocaine, reference compound] | inhibited equally sensation of pain, heat and touch | inhibited equally sensation of pain, heat and touch | inhibits responses both to pin-prick and to heat | inhibits responses both to pin-prick and to heat | – | – | – | – | – | – | – | – | – | – | – | – | – | – | – | –
